Results taken from paper PMC5193075 (The Journal of Pharmacology and Experimental Therapeutics, 2017).

Legend:
[1] = Unbound drug fraction in cell culture medium by rapid equilibrium dialysis; format: in vitro ADME; settings: bovine, bovine serum albumin-containing cell culture medium
[2] = test system: cryopreserved human primary hepatocytes; experiment: Drug depletion; settings: for interwell variability in unbound intrinsic clearance (IWV) / interdonor variability in unbound intrinsic clearance (IDV): parentheses = relative standard error; for interdonor variability in unbound intrinsic clearance (IDV): individual-donor data; for CLint(u) ratio individual-donor/pooled hepatocytes: parentheses = 95% confidence intervals (Fieller's theorem)
[3] = Prediction of in vivo hepatic clearance from liver MPS data; design: species or system human
[4] = individual-donor data (within donor)

Row | Compound | fraction unbound [1] | interwell variability in unbound intrinsic clearance (IWV) [2, 4] | interdonor variability in unbound intrinsic clearance (IDV) [2] | CLint(u) ratio individual-donor/pooled hepatocytes [2] | fold-error (underprediction) of in vivo hepatic clearance ([3]; parallel tube (PT) liver model) [fold] | fold-error (underprediction) of in vivo hepatic clearance ([3]; well stirred (WS) liver model) [fold] | interdonor variability in unbound intrinsic clearance (IDV) ([2]; listed as phenacetin) [CV%] | interwell variability in unbound intrinsic clearance (IWV) ([2]; pooled hepatocytes data)
1 | CC(C)NCC(O)COc1cccc2ccccc12 (stereo not shown) [Propranolol, propranolol] | 0.98 | – | – | – | – | – | – | –
2 | CC(C)Cc1ccc(C(C)C(=O)O)cc1 (stereo not shown) [Ibuprofen, ibuprofen] | 0.31 | – | – | – | – | – | – | –
3 | C[C@]12C=CC(=O)C=C1CC[C@@H]1[C@@H]2[C@@H](O)C[C@@]2(C)[C@H]1CC[C@]2(O)C(=O)CO [Prednisolone, prednisolone] | 0.94 | 21.5% (70.0%) CV% | 29.3% (58.1%) CV% | 0.89 (0.63, 1.16) | – | – | – | –
4 | O=C(O)Cc1ccccc1Nc1c(Cl)cccc1Cl [Diclofenac, diclofenac] | 0.13 | – | 36.2% (71.5%) CV% | – | – | – | – | –
5 | CCOc1ccc(NC(C)=O)cc1 [Phenacetin, phenacetin] | 0.98 | 26.1% (65.2%) CV% | 24.1% (80.4%) CV% | 0.92 (0.61, 1.47) | 1.7 | 2.1 | 24.1 | 30.7% (41.5%) CV%
